Measured values published in the supplement of paper PMC10307832.

Experiments:
Experiment in all cases: relative viability (nuclei count vs DMSO), 5 days (fraction); higher = more cells survive
[1] = compound: COc1cc2ncn(-c3cc(OCc4ccccc4C(F)(F)F)c(C(N)=O)s3)c2cc1OC + C[C@]1(O)C[C@@H](c2nc(-c3ccc4ccc(-c5ccccc5)nc4c3)c3c(N)nccn32)C1 [Linsitinib] (partner 1 µM)
Procedure, shortened: (§1)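 Medians of duplicate plates are given as relative viability. That measure is the nuclei count in treated wells divided by the count in vehicle wells. Counts were taken on 4× images of lung cancer cell lines in 1536-well plates, 5 days after pin-tool dosing the day after seeding with one drug alone or a fixed anchor-drug dose plus five library-drug doses (not always all listed) in √10 steps.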

[2] = compound: COc1cc2ncn(-c3cc(OCc4ccccc4C(F)(F)F)c(C(N)=O)s3)c2cc1OC + Cc1cc(Nc2cc(N3CCN(C)CC3)nc(Sc3ccc(NC(=O)C4CC4)cc3)n2)n[nH]1 [Tozasertib] (partner 0.1 µM)
Procedure, shortened: as §1

[3] = compound: COc1cc2ncn(-c3cc(OCc4ccccc4C(F)(F)F)c(C(N)=O)s3)c2cc1OC + COc1cccc2cc(-c3nc([C@H]4CC[C@H](C(=O)O)CC4)n4ncnc(N)c34)[nH]c12 [OSI-027] (partner 0.5 µM)
Procedure, shortened: as §1

[4] = compound: COc1cc2ncn(-c3cc(OCc4ccccc4C(F)(F)F)c(C(N)=O)s3)c2cc1OC + C[C@@H](Oc1cc(-c2cnn(C3CCNCC3)c2)cnc1N)c1c(Cl)ccc(F)c1Cl [Crizotinib] (partner 1 µM)
Procedure, shortened: as §1

Row | Cell Line | relative viability ([1]; first compound 0.05 µM) | relative viability ([1]; first compound 0.1581 µM) | relative viability ([1]; first compound 0.5 µM) | relative viability ([1]; first compound 1.581 µM) | relative viability ([1]; first compound 5 µM) | relative viability ([2]; first compound 0.05 µM) | relative viability ([2]; first compound 0.1581 µM) | relative viability ([2]; first compound 0.5 µM) | relative viability ([2]; first compound 1.581 µM) | relative viability ([2]; first compound 5 µM) | relative viability ([3]; first compound 0.05 µM) | relative viability ([3]; first compound 0.1581 µM) | relative viability ([3]; first compound 0.5 µM) | relative viability ([3]; first compound 1.581 µM) | relative viability ([3]; first compound 5 µM) | relative viability ([4]; first compound 0.05 µM) | relative viability ([4]; first compound 0.1581 µM) | relative viability ([4]; first compound 0.5 µM) | relative viability ([4]; first compound 1.581 µM) | relative viability ([4]; first compound 5 µM)
1 | NCI-H2085 | 0.885 | 0.731 | 0.601 | 0.168 | 0.416 | 0.761 | 0.738 | 0.403 | 0.407 | 0.454 | 0.739 | 0.731 | 0.316 | 0.295 | 0.203 | 0.842 | 0.848 | 0.629 | 0.517 | 0.309
2 | NCI-H1395 | 0.967 | 1 | 0.593 | 0.395 | 0.388 | 0.774 | 0.898 | 0.636 | 0.36 | 0.343 | 0.63 | 0.675 | 0.547 | 0.354 | 0.323 |  |  |  |  | 
3 | NCI-H1648 |  |  |  |  |  | 0.455 | 0.371 | 0.157 | 0.235 | 0.182 | 0.255 | 0.219 | 0.244 | 0.238 | 0.198 |  |  |  |  | 
4 | NCI-H460 | 0.836 | 0.832 | 0.0599 | 0.0112 | 0.0063 | 0.497 | 0.294 | 0.0449 | 0.0359 | 0.0337 | 0.625 | 0.616 | 0.227 | 0.0107 | 0.0118 | 1.14 | 0.899 | 0.0648 | 0.0097 | 0.0254
5 | A549 | 0.63 | 0.714 | 0.386 | 0.0698 | 0.29 |  |  |  |  |  |  |  |  |  |  | 0.864 | 0.612 | 0.104 | 0.0479 | 0.102
6 | IA-LM | 0.58 | 0.606 | 0.172 | 0.0675 | 0.0619 |  |  |  |  |  |  |  |  |  |  | 0.717 | 0.395 | 0.198 | 0.0759 | 0.0777
7 | EKVX | 1.06 | 1.07 | 0.858 | 0.214 | 0.42 | 0.371 | 0.408 | 0.311 |  | 0.229 | 0.653 | 0.69 | 0.491 |  | 0.449 | 1.04 | 1.04 | 0.731 | 0.225 | 0.563
8 | ChaGo-K-1 |  |  |  |  |  | 0.212 | 0.219 | 0.197 | 0.251 | 0.184 | 0.622 | 0.531 | 0.32 | 0.182 | 0.134 | 1.07 | 0.944 | 0.831 | 0.434 | 0.38
9 | NCI-H1755 | 0.995 | 1.02 | 0.799 | 0.416 | 0.349 | 0.517 | 0.553 | 0.518 | 0.376 | 0.285 | 0.785 | 0.688 | 0.467 | 0.314 | 0.266 | 0.829 | 0.828 | 0.644 | 0.389 | 0.334
10 | NCI-H2228 | 0.525 | 0.52 | 0.253 | 0.176 | 0.231 | 0.291 | 0.258 | 0.133 | 0.178 | 0.201 | 0.662 | 0.558 | 0.192 | 0.134 | 0.179 | 0.542 | 0.554 | 0.31 | 0.207 | 0.308
